This note sets out measurements from patent US4371541A, “Antiinflammatory and/or analgesic 3,4-dihydro-(or 1,4-dihydro)-4-aryl-2-((substituted)thio)-(1)-benzopyrano(3,4-d)imidazol es and their corresponding sulfoxides and sulfones” (E. I. Du Pont de Nemours and Company, priority 1982, dated 1983).

By ED50 is commonly meant the dose that gives a 50% effect, or the effect in half of the subjects.

For assay [1], the system named is adjuvant-induced arthritis. Kind of assay: Established Adjuvant-Induced Arthritis in Rats. The class given is in vivo, Charles River Lewis male rats. Conditions: rat; for ED50: oral gavage, dosed on day of grouping and 6 following days, ED50% decrease from control paw volume (uninjected left hind paw), read-out: Adjuvant Arthritic ED50; for Adjuvant Arthritic, paw volume reduction at the indicated dose: oral.

Assay [2] has as its system phenylquinone-induced writhing (pain). In words: Phenylquinone Writhing Test. Conditions: read-out: Phenylquinone Writhing ED50. The class given is in vivo, female white mice. As for the experimental part: A test compound suspended in 1% methylcellulose was given orally to fasted (17-21 hours) female white mice, 5-20 animals per double blind test. Aqueous (0.01% phenyl-p-benzoquinone) phenylquinone, 0.20 ml per mouse, was injected intraperitoneally 6 minutes before observations were begun.
In general terms: An intraperitoneal irritant provokes the stretching counted in writhing tests.

Setting [3] is: mouse, oral, fasted, effective analgesic dose for 50% of the mice.

The structures appear in SMILES notation. Where two headings read alike, the source gives them in different places. Bounds are passed on as bounds.

On to `O=S(=O)(c1nc2c([nH]1)C(c1ccccc1)Oc1ccccc1-2)C(F)(F)F` (stereo not shown) [Example 5, 3,4-Dihydro(or 1,4-dihydro)-2-[(trifluoromethyl)sulfonyl]-4-phenyl-[1]benzopyrano[3,4-d]imidazole], for which the figures for the ED50 in assay [1] and in assay [2] (setting [3]) were 0.8 mg/kg and 0.16 mg/kg, respectively.

Regarding `CS(=O)(=O)c1nc2c([nH]1)C(c1ccccc1)Oc1ccccc1-2` (stereo not shown) [Example 6, 3,4-Dihydro(or 1,4-dihydro)-2-(methylsulfonyl)-4-phenyl-[1]benzopyrano[3,4-d]imidazole], the “Adjuvant Arthritic, paw volume reduction at the indicated dose” value (“Adjuvant Arthritic, paw volume reduction” for short) in assay [1] (at 27 (mg/kg)) is recorded as 34%. The ED50 in assay [2] (setting [3]) came to 78 mg/kg.

Take `CCSc1nc2c([nH]1)C(c1ccccc1)Oc1ccccc1-2` (stereo not shown) [Example 8]: in assay [1] (at 20 (mg/kg)), the “Adjuvant Arthritic, paw volume reduction” value was determined as 18%.

For `COc1ccc(C2Oc3ccccc3-c3nc(SC(F)(F)C(F)F)[nH]c32)cc1` (stereo not shown) [Example 7], the ED50 in assay [2] (setting [3]) is below 4 mg/kg.

Turning to `Fc1ccc(C2Oc3ccccc3-c3nc(SC(F)(F)C(F)F)[nH]c32)cc1` (stereo not shown) [Example 3, 3,4-Dihydro(or 1,4-dihydro)-2-[(1,1,2,2-tetrafluoroethyl)thio]-4-(4-fluorophenyl)-[1]benzopyrano[3,4-d]-imidazole], the results for the ED50 in assay [1] and in assay [2] (setting [3]) were 4 mg/kg and 0.79 mg/kg, respectively.

With `CC(=O)Oc1ccccc1C(=O)O` [Aspirin, aspirin, reference compound], the ED50 in assay [2] (Mus musculus, po) was 135 mg/kg.

In the case of `O=S(=O)(c1nc2c([nH]1)C(c1ccccc1)Oc1ccccc1-2)C(F)(F)C(F)F` (stereo not shown) [Example 2, 3,4-Dihydro(or 1,4-dihydro)-2-[(1,1,2,2-tetrafluoroethyl)sulfonyl]-4-phenyl-[1]benzopyrano[3,4-d]imidazole], the ED50 in assay [1] came to 1.3 mg/kg; in assay [2] (setting [3]), 0.19 mg/kg.

Take `FC(F)(F)Sc1nc2c([nH]1)C(c1ccccc1)Oc1ccccc1-2` (stereo not shown) [Example 4, 3,4-Dihydro(or 1,4-dihydro)-2-[(trifluoromethyl)thio]4phenyl-[1]benzopyrano[3,4-d]imidazole]: in assay [1] (at 9 (mg/kg)), the “Adjuvant Arthritic, paw volume reduction” value was determined as 31%. Also, the ED50 in assay [2] (setting [3]) was 0.58 mg/kg.

Turning to `CCCCC1C(=O)N(c2ccccc2)N(c2ccccc2)C1=O` [Phenylbutazone, phenylbutazone, reference compound], the ED50 in assay [2] (setting [3]) stood at 80 mg/kg.

Take `COc1ccc2c(c1)c(CC(=O)O)c(C)n2C(=O)c1ccc(Cl)cc1` [Indomethacin, indomethacin, reference compound]: in assay [2] (Mus musculus, po), the ED50 is 0.35 mg/kg.

Consider `FC(F)C(F)(F)Sc1nc2c([nH]1)C(c1ccccc1)Oc1ccccc1-2` (stereo not shown) [Example 1, 3,4-Dihydro(or 1,4-dihydro)-2-[(1,1,2,2-tetrafluoroethyl)thio]-4-phenyl-[1]benzopyrano[3,4-d]imidazole], for which the ED50 in assay [1] came to 3.4 mg/kg; in assay [2] (setting [3]), 1.3 mg/kg.

`CC(C)Cc1ccc(C(C)C(=O)O)cc1` (stereo not shown) [Ibuprofen, ibuprofen, reference compound]: the ED50 in assay [2] (setting [3]) worked out at 10 mg/kg.

With `FC(F)(F)CSc1nc2c([nH]1)C(c1ccccc1)Oc1ccccc1-2` (stereo not shown) [Example 9], in assay [1] (at 20 (mg/kg)), the “Adjuvant Arthritic, paw volume reduction” value was 30%.
